Assay results published in patent US20220064138A1, “MACROLIDE BREFELDIN A ESTER DERIVATIVES AND USE THEREOF” (OCEAN UNIVERSITY OF CHINA, priority 2019, published 2022).
Values after ≈ are worked out from the molar mass of the structure shown.

Legend:
[1] = test system: human gastric cancer MKN-45 cells; test: Cell proliferation assay (CCK-8); format: cell-based; details: MKN-45, 72 h
Description: (§1) CCK-8 method: The CCK-8 method is a highly sensitive, non-radioactive colorimetric assay for the determination of the number of viable cells in cell proliferation or cytotoxicity assays. The orange formazan dye produced by the bioreduction of CCK-8 by intracellular dehydrogenase is soluble in the cell culture medium, and the amount of formazan dye produced is proportional to the number of living cells. The kit used in this method is the tetrazolium salt-WST-8 (2-(2-methoxy-4-nitrophenyl)-3-(4-nitrophenyl)-5-(2,4-disulfophenyl)-2H-tetrazolium monosodium salt) developed by Dojindo Chemical Research Institute (Dojindo), which is capable of being reduced to a water-soluble formazan dye in the presence of the electronic carrier 1-Methoxy PMS.
(§2) Human cervical cancer Hela cells, pancreatic cancer PANC-1 cells, esophageal cancer Eca-109 cells, human leukemia K562 cells, human lung cancer A549 cells, human liver cancer HepG2 cells, human gastric cancer MKN-45 cells, human breast cancer MCF7 cells were cultured in DMEM medium containing 10% FBS (fetal bovine serum), 100 U/mL penicillin and 100 μg/ml streptomycin. Hepatocellular carcinoma cells Bel-7402 were cultured in RPMI-1640 medium containing 10% FBS (fetal bovine serum), 100 U/ml penicillin and 100 μg/ml streptomycin. All cells were placed in a cell culture incubator at 37° C. with 5% CO2. Cells fluid was changed every 3-5 days, and after 80% cell fusion, trypsin digestion and passaging were performed to keep the cells in good logarithmic growth phase.
(§3) All the samples to be tested were dissolved in DMSO.
(§4) Cells in logarithmic growth phase were inoculated in 96-well plates with 5000 cells/well respectively, and after 24 h of incubation, samples were added (final concentrations as shown in the table), and biplicate wells were set up for each sample. The amount of solvent of DMSO was not higher than 2‰. After 72 h, 10 μL of CCK-8 solution was added to each well and incubated for 1.5˜3 h at 37° C. The OD value at 450 nm was measured on an plate reader.
(§5) Inhibition rate (%)=(1−[(OD450 dosed well−OD450 blank well)/(OD450 control well−OD450 blank well)])×100%
(§6) The fitted IC50 values were calculated using the log (inhibitor) vs. response-Variable slop analysis method in GraphPad Prism software.

[2] = test system: pancreatic cancer PANC-1 cells; test: Cell proliferation assay (CCK-8); format: cell-based; details: Homo sapiens, PANC-1, 72 h
Description: as §1, §2, §3, §4, §5, §6

[3] = test system: human liver cancer HepG2 cells; test: Cell proliferation assay (CCK-8); format: cell-based; details: HepG2, 72 h
Description: as §1, §2, §3, §4, §5, §6

[4] = test system: human breast cancer MCF7 cells; test: Cell proliferation assay (CCK-8); format: cell-based; details: MCF7, 72 h
Description: as §1, §2, §3, §4, §5, §6

[5] = test system: human leukemia K562 cells; test: Cell proliferation assay (CCK-8); format: cell-based; details: K562, 72 h
Description: as §1, §2, §3, §4, §5, §6

[6] = test system: human lung cancer A549 cells; test: Cell proliferation assay (CCK-8); format: cell-based; details: A549, 72 h
Description: as §1, §2, §3, §4, §5, §6

[7] = test system: esophageal cancer Eca-109 cells; test: Cell proliferation assay (CCK-8); format: cell-based; details: Homo sapiens, Eca-109, 72 h
Description: as §1, §2, §3, §4, §5, §6

[8] = test system: Human cervical cancer Hela cells; test: Cell proliferation assay (CCK-8); format: cell-based; details: 72 h
Description: as §1, §2, §3, §4, §5, §6

[9] = test system: Kunming breed mice; test: Toxicity test after intraperitoneal administration to mice; format: in vivo; details: 14 d; for Deaths: high and low doses (BFA effective amount conversion), ip., mice; for Mental condition of the animals after administration / Results of anatomy: abnormality in organs: male, Kunming, mouse, in vivo, ip
Description: Objective: Observation of toxic effects of compounds after intraperitoneally administration (ip.) to mice
1) Agents: Compounds disclosed herein were formulated to a suitable concentration.
2) Animals: Kunming breed mice, weight 18-22 g, male. Provided by Jinan Pengyue Laboratory Animal Breeding Co., Ltd. Animal license number: SCXK (Shandong 20140007)
Method: Kunming breed mice, were randomly grouped by weight, 6 mice per group, namely normal control group, BFA high and low dose groups (100 mg/kg and 50 mg/kg, respectively), and high and low dose groups of some compounds disclosed herein (BFA effective amount conversion). […] After 14 d of continuous administration, all the animals were weighed, and the animals were executed to observe whether there were any abnormalities in the organs.

[10] = Solubility test (shaking 24 h at 37° C., HPLC)

Structure (SMILES)	IC50 [1]	IC50 [2]	IC50 [3]	IC50 [4]	IC50 [5]	IC50 [6]	IC50 [7]	IC50 [8]	Deaths [9]	Mental condition of the animals after administration [9]	Results of anatomy: abnormality in organs [9]	solubility at 24 h ([10]; 5% DMSO + 95% H2O)	solubility at 24 h ([10]; acetone)	solubility at 24 h ([10]; methanol)
C[C@H]1CCC/C=C/[C@@H]2C[C@H](OC(=O)/C=C/c3cccc(F)c3)C[C@H]2[C@H](O)/C=C/C(=O)O1 [Compound 1a, 7-O-(3-fluorocinnamic acid)acyl BFA]	100 to 1000 nM	100 to 1000 nM	100 to 1000 nM	100 to 1000 nM	100 to 1000 nM	100 to 1000 nM	1000 to 10000 nM	1000 to 10000 nM	no deaths	good mental condition	no significant abnormality in all organs	0.33 ± 0.13 mg/mL	21.9 ± 1.53 mg/mL (≈ 51.1 mM)	21.3 ± 1.52 mg/mL (≈ 49.8 mM)
C[C@H]1CCC/C=C/[C@@H]2C[C@H](O)C[C@H]2[C@H](OC(=O)/C=C/c2cccc(F)c2)/C=C/C(=O)O1 [Compound 1b, 4-O-(3-fluorocinnamic acid)acyl BFA]	100 to 1000 nM	100 to 1000 nM	100 to 1000 nM	100 to 1000 nM	100 to 1000 nM	100 to 1000 nM	100 to 1000 nM	100 to 1000 nM	no deaths	good mental condition	no significant abnormality in all organs	0.32 ± 0.05 mg/mL	21 ± 1.42 mg/mL (≈ 49.1 mM)	21.1 ± 1.32 mg/mL (≈ 49.3 mM)
C[C@H]1CCC/C=C/[C@@H]2C[C@H](OC(=O)/C=C/c3cccc(F)c3)C[C@H]2[C@H](OC(=O)/C=C/c2cccc(F)c2)/C=C/C(=O)O1 [Compound 1c, 4,7-O-bis(3-fluorocinnamic acid)acyl BFA]	100 to 1000 nM	1000 to 10000 nM	1000 to 10000 nM	1000 to 10000 nM	100 to 1000 nM	1000 to 10000 nM	1000 to 10000 nM	1000 to 10000 nM	no deaths	good mental condition	no significant abnormality in all organs	0.2 ± 0.91 mg/mL	12.1 ± 0.91 mg/mL (≈ 21.1 mM)	12.2 ± 1.59 mg/mL (≈ 21.2 mM)
C[C@H]1CCC/C=C/[C@@H]2C[C@H](OC(=O)/C=C/c3ccc(N(C)C)cc3)C[C@H]2[C@H](O)/C=C/C(=O)O1 [Compound 10a, 7-O-(4-dimethylaminocinnamic acid)acyl BFA]	100 to 1000 nM	1000 to 10000 nM	1000 to 10000 nM	100 to 1000 nM	100 to 1000 nM	100 to 1000 nM	1000 to 10000 nM	1000 to 10000 nM	no deaths	good mental condition	no significant abnormality in all organs	0.75 ± 1.6 mg/mL	25.6 ± 1.74 mg/mL (≈ 56.5 mM)	25.3 ± 4.35 mg/mL (≈ 55.7 mM)
C[C@H]1CCC/C=C/[C@@H]2C[C@H](O)C[C@H]2[C@H](OC(=O)/C=C/c2cccnc2)/C=C/C(=O)O1 [Compound 16b]	100 to 1000 nM	< 100 nM	< 100 nM	100 to 1000 nM	100 to 1000 nM	100 to 1000 nM	100 to 1000 nM	100 to 1000 nM	no deaths	good mental condition	no significant abnormality in all organs	–	–	–
C[C@H]1CCC/C=C/[C@@H]2C[C@H](OC(=O)/C=C/c3cccnc3)C[C@H]2[C@H](OC(=O)/C=C/c2cccnc2)/C=C/C(=O)O1 [Compound 16c]	1000 to 10000 nM	100 to 1000 nM	100 to 1000 nM	1000 to 10000 nM	100 to 1000 nM	100 to 1000 nM	1000 to 10000 nM	1000 to 10000 nM	no deaths	good mental condition	no significant abnormality in all organs	–	–	–
